Results: the NIST ThermoML archive (doi:10.1016/j.tca.2014.03.038)
± gives the expanded uncertainty stated by the source.

What was measured:
[1] = xn = mol fraction of the nth substance listed; details: 101 kPa, Liquid; for mass density: Pycnometric method; for speed of sound: multifrequency ultrasonic interferometer
[2] = 101.33 kPa, Liquid; for mass density: Pycnometric method; for speed of sound: multifrequency ultrasonic interferometer

CCO [ethanol] + CN(C)CCO
[1], x2 = 0
Details	mass density [kg/m3]	speed of sound [m/s]
298.15 K	785.48 ± 0.23	1143.2 ± 0.4
308.15 K	776.82 ± 0.26	1109.6 ± 0.4
318.15 K	768.08 ± 0.29	1075.5 ± 0.4

CO [methanol] + CN(C)CCO
[1], x2 = 0
Details	mass density [kg/m3]	speed of sound [m/s]
298.15 K	786.74 ± 0.24	1100.7 ± 0.5
308.15 K	777.45 ± 0.26	1068.2 ± 0.5
318.15 K	768.01 ± 0.29	1037 ± 0.5

CN(C)CCO [2-(N,N-dimethylamino)ethanol]
[2]
Details	mass density [kg/m3]	speed of sound [m/s]
298.15 K	883.34 ± 0.4	1344.4 ± 0.8
308.15 K	874.99 ± 0.42	1309.1 ± 0.8
318.15 K	866.37 ± 0.44	1274.1 ± 0.8

CO [methanol]
[2]
Details	mass density [kg/m3]	speed of sound [m/s]
298.15 K	786.74 ± 0.24	1100.7 ± 0.2
308.15 K	777.45 ± 0.26	1068.2 ± 0.2
318.15 K	768.01 ± 0.29	1037 ± 0.2

CN(C)CCO [2-(N,N-dimethylamino)ethanol] + CCO
[1]
Details	mass density, 298.15 K [kg/m3]	mass density, 308.15 K [kg/m3]	mass density, 318.15 K [kg/m3]	speed of sound, 298.15 K [m/s]	speed of sound, 308.15 K [m/s]	speed of sound, 318.15 K [m/s]
x1 = 0.0929	803.31 ± 0.24	795.34 ± 0.27	787.23 ± 0.3	1172.7 ± 0.4	1141.5 ± 0.4	1109.4 ± 0.4
x1 = 0.1972	820.2 ± 0.26	812.45 ± 0.28	804.46 ± 0.31	1206.4 ± 0.5	1176.1 ± 0.5	1144.1 ± 0.5
x1 = 0.3005	834.5 ± 0.27	826.62 ± 0.29	818.61 ± 0.32	1236.8 ± 0.5	1207.1 ± 0.5	1176.3 ± 0.5
x1 = 0.4012	846.38 ± 0.28	838.41 ± 0.31	830.22 ± 0.33	1264.9 ± 0.6	1234.4 ± 0.6	1205.1 ± 0.6
x1 = 0.5051	856.62 ± 0.3	848.64 ± 0.32	840.29 ± 0.35	1290.4 ± 0.6	1259.8 ± 0.6	1231.3 ± 0.6
x1 = 0.6098	864.64 ± 0.31	856.77 ± 0.34	848.47 ± 0.37	1309.3 ± 0.7	1279.1 ± 0.7	1251 ± 0.7
x1 = 0.7086	871.01 ± 0.33	863.28 ± 0.36	854.97 ± 0.38	1321 ± 0.7	1292 ± 0.7	1264.2 ± 0.7
x1 = 0.8031	875.81 ± 0.35	868.08 ± 0.38	859.92 ± 0.4	1329.8 ± 0.8	1300.4 ± 0.8	1271.8 ± 0.8
x1 = 0.9036	879.78 ± 0.37	871.92 ± 0.4	863.76 ± 0.42	1336.4 ± 0.8	1304.5 ± 0.8	1273.3 ± 0.8
x1 = 1	883.34 ± 0.4	874.99 ± 0.42	866.37 ± 0.44	1344.4 ± 0.9	1309.1 ± 0.9	1274.1 ± 0.9

CN(C)CCO [2-(N,N-dimethylamino)ethanol] + CO
[1]
Details	mass density, 298.15 K [kg/m3]	mass density, 308.15 K [kg/m3]	mass density, 318.15 K [kg/m3]	speed of sound, 298.15 K [m/s]	speed of sound, 308.15 K [m/s]	speed of sound, 318.15 K [m/s]
x1 = 0.0971	814.11 ± 0.26	806.11 ± 0.28	797.9 ± 0.31	1152.4 ± 0.5	1126.7 ± 0.5	1101.6 ± 0.5
x1 = 0.1983	835.29 ± 0.27	827.54 ± 0.3	819.51 ± 0.32	1204.7 ± 0.5	1180.5 ± 0.5	1156.2 ± 0.5
x1 = 0.2962	850.65 ± 0.28	842.65 ± 0.31	834.22 ± 0.34	1249.8 ± 0.6	1225.3 ± 0.6	1199.5 ± 0.6
x1 = 0.4039	862.04 ± 0.3	853.81 ± 0.32	845.26 ± 0.35	1290.2 ± 0.6	1265.5 ± 0.6	1238.9 ± 0.6
x1 = 0.502	868.4 ± 0.31	860.4 ± 0.34	852.01 ± 0.36	1312 ± 0.6	1288.1 ± 0.6	1261.3 ± 0.6
x1 = 0.607	873.13 ± 0.33	865.13 ± 0.35	856.89 ± 0.38	1322.4 ± 0.7	1299.3 ± 0.7	1272.9 ± 0.7
x1 = 0.7075	876.61 ± 0.34	868.67 ± 0.37	860.58 ± 0.39	1326.9 ± 0.7	1301.3 ± 0.7	1273.6 ± 0.7
x1 = 0.7999	879.06 ± 0.36	871.15 ± 0.38	862.98 ± 0.41	1330.6 ± 0.8	1303.1 ± 0.8	1273.9 ± 0.8
x1 = 0.9015	881.19 ± 0.38	873.28 ± 0.4	865.23 ± 0.43	1335 ± 0.8	1304.2 ± 0.8	1274 ± 0.8
x1 = 1	883.34 ± 0.4	874.99 ± 0.42	866.37 ± 0.44	1344.4 ± 0.9	1309.1 ± 0.9	1274.1 ± 0.9

CCO [ethanol]
[2]
Details	mass density [kg/m3]	speed of sound [m/s]
298.15 K	785.48 ± 0.23	1143.2 ± 0.1
308.15 K	776.82 ± 0.26	1109.6 ± 0.1
318.15 K	768.08 ± 0.29	1075.5 ± 0.1
